Experimental data reported in PubChem BioAssay (NCI).
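How tested: cells in 96-well plates exposed to compound for 48 hours at five concentrations. TGI marks complete inhibition of growth.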

Legend:
Assay in all cases: inhibition of tumour cell growth, NCI panel, 48 h
OVCAR-5 ovarian = system: OVCAR-5 ovarian
OVCAR-8 ovarian = system: OVCAR-8 ovarian
ACHN renal = system: ACHN renal
SNB-75 CNS = system: SNB-75 CNS
COLO 205 colon = system: COLO 205 colon
SF-539 CNS = system: SF-539 CNS
IGROV1 ovarian = system: IGROV1 ovarian
NCI/ADR-RES ovarian = system: NCI/ADR-RES ovarian
SK-MEL-28 melanoma = system: SK-MEL-28 melanoma
HT29 colon = system: HT29 colon
HOP-92 NSCLC = system: HOP-92 NSCLC
UACC-62 melanoma = system: UACC-62 melanoma
OVCAR-3 ovarian = system: OVCAR-3 ovarian
786-0 renal = system: 786-0 renal
SNB-19 CNS = system: SNB-19 CNS
TK-10 renal = system: TK-10 renal
NCI-H23 lung = system: NCI-H23 lung
CAKI-1 renal = system: CAKI-1 renal
RXF 393 renal = system: RXF 393 renal
K-562 leukemia = system: K-562 leukemia

| SMILES | TGI (OVCAR-5 ovarian) [µM] | TGI (OVCAR-8 ovarian) [µM] | TGI (ACHN renal) [µM] | TGI (SNB-75 CNS) [µM] | TGI (COLO 205 colon) [µM] | TGI (SF-539 CNS) [µM] | TGI (IGROV1 ovarian) [µM] | TGI (NCI/ADR-RES ovarian) [µM] | TGI (SK-MEL-28 melanoma) [µM] | TGI (HT29 colon) [µM] | TGI (HOP-92 NSCLC) [µM] | TGI (UACC-62 melanoma) [µM] | TGI (OVCAR-3 ovarian) [µM] | TGI (786-0 renal) [µM] | TGI (SNB-19 CNS) [µM] | TGI (TK-10 renal) [µM] | TGI (NCI-H23 lung) [µM] | TGI (CAKI-1 renal) [µM] | TGI (RXF 393 renal) [µM] | TGI (K-562 leukemia) [µM] |
| --- | --- | --- | --- | --- | --- | --- | --- | --- | --- | --- | --- | --- | --- | --- | --- | --- | --- | --- | --- | --- |
| CC1=C2C(=O)NN=C2CCN1c1ccc(Br)cc1 | > 100 | > 100 | > 100 | > 100 | > 100 | > 100 | > 100 | > 100 | > 100 | > 100 | > 100 | > 100 | > 100 | > 100 | > 100 | > 100 | > 100 | > 100 | – | – |
| O=C(O)c1cc2c(cc1CC(Cc1ccc3c(c1)CCC3)C(=O)O)CCC2 (stereo not drawn) | > 100 | > 100 | > 100 | > 100 | > 100 | > 100 | > 100 | > 100 | > 100 | > 100 | > 100 | – | > 100 | > 100 | > 100 | > 100 | > 100 | > 100 | > 100 | – |
| CCN(CC)CCc1c2c(nc3ccccc13)C(=O)c1cccnc1C2=O | 25.4 | > 100 | – | 16.7 | 3.07 | – | 5.53 | > 100 | 7.27 | 11.1 | 40.1 | 2.97 | 5.8 | 9.56 | – | 12.6 | 8.53 | 4.9 | 7 | 4.23 |
| CC(C)(C)c1ccc2c(c1)CNCCNCc1cc(C(C)(C)C)ccc1OCC1(CO2)COc2ccc(C(C)(C)C)cc2CNCCNCc2cc(C(C)(C)C)ccc2OC1 | 3.06 | 1.45 | 2.98 | 2.96 | 2.29 | 2.76 | 2.5 | 3.07 | 3.05 | 0.472 | 2.58 | 2.76 | 3.12 | 0.388 | 2 | 3.32 | 2.59 | 2.74 | – | – |
| C=C1CC(COc2cc(=O)oc3ccccc23)(c2ccccc2)OC1=O (stereo not drawn) | 21.4 | 4.87 | 4.54 | 12.3 | 3.1 | 7.69 | 3.07 | 25.1 | 6.13 | 3.4 | 2.34 | 2.92 | 1.87 | 2.96 | 37.3 | 3.89 | 4.92 | 2.67 | – | 3.1 |
| CN1C(=O)N(c2ccccc2)C2(CCN(CC3COc4ccccc4O3)CC2)C1=O (stereo not drawn) | > 100 | > 100 | > 100 | – | > 100 | > 100 | > 100 | > 100 | > 100 | > 100 | > 100 | > 100 | 89.2 | > 100 | 56.6 | > 100 | > 100 | > 100 | > 100 | > 100 |
| Nc1ccc2nc(-c3ccccn3)c(-c3ccccn3)nc2c1 | > 100 | > 100 | > 100 | > 100 | > 100 | > 100 | > 100 | > 100 | > 100 | – | > 100 | > 100 | > 100 | > 100 | > 100 | > 100 | – | > 100 | > 100 | > 100 |
| OCC1CCCCCCCCCCC12SCCCS2 (stereo not drawn) | > 100 | – | > 100 | > 100 | > 100 | – | > 100 | > 100 | > 100 | > 100 | > 100 | > 100 | > 100 | > 100 | > 100 | > 100 | > 100 | > 100 | – | > 100 |
| Cc1ccc(-c2c(C#N)c(-c3ccccc3)n(NS(=O)(=O)c3ccccc3)c(=O)c2C#N)cc1 | > 100 | > 100 | > 100 | > 100 | > 100 | > 100 | > 100 | > 100 | > 100 | > 100 | > 100 | > 100 | – | > 100 | > 100 | > 100 | – | > 100 | > 100 | > 100 |
| CC(C)(N=NC(C)(C)C(=O)NCCO)C(=O)NCCO | > 100 | > 100 | > 100 | – | > 100 | > 100 | > 100 | > 100 | > 100 | > 100 | > 100 | > 100 | > 100 | > 100 | > 100 | > 100 | > 100 | > 100 | > 100 | > 100 |
| O=C1/C(=C/c2ccccc2)N=C(c2ccccc2)N1n1c(-c2ccccc2)nc2ccccc2c1=O | > 100 | > 100 | > 100 | > 100 | > 100 | > 100 | > 100 | > 100 | > 100 | > 100 | > 100 | > 100 | > 100 | > 100 | > 100 | > 100 | > 100 | – | > 100 | > 100 |
| CC1(O)CC(C(F)(F)F)(C(F)(F)F)OC1=O (stereo not drawn) | > 10 | > 10 | > 10 | – | > 10 | > 10 | > 10 | > 10 | > 10 | > 10 | > 10 | > 10 | > 10 | > 10 | > 10 | > 10 | > 10 | > 10 | – | > 10 |
| O=c1nc(N2CCN(c3ccccc3)CC2)ccn1C1OC(CO)C(O)C1O (stereo not drawn) | > 100 | > 100 | > 100 | – | > 100 | > 100 | > 100 | > 100 | > 100 | > 100 | > 100 | > 100 | > 100 | > 100 | > 100 | > 100 | > 100 | > 100 | > 100 | > 100 |
| O=C(Nc1ccc(Br)cc1)c1c(-c2ccccc2)c2ccc(O)cc2oc1=O | > 10 | > 10 | > 10 | > 10 | > 10 | > 10 | > 10 | > 10 | > 10 | > 10 | > 10 | – | > 10 | > 10 | – | > 10 | > 10 | > 10 | > 10 | > 10 |
| Cc1nc2c(sc(=S)n2-c2ccccc2)c2nc3ncccc3n12 | > 100 | > 100 | > 100 | 64.5 | > 100 | – | > 100 | > 100 | > 100 | > 100 | > 100 | > 100 | > 100 | > 100 | > 100 | > 100 | > 100 | > 100 | > 100 | > 100 |
| COc1ccc(-c2cc(-c3ccco3)c(C#N)c(=S)n2C2OC(COC(C)=O)C(OC(C)=O)C(OC(C)=O)C2OC(C)=O)cc1 (stereo not drawn) | 30.9 | 13 | 19.4 | 17.7 | 16.2 | 4.56 | 29.5 | 37.7 | 12.7 | 14.8 | 13 | 14.4 | 19.7 | 10.6 | 19.1 | 45.1 | – | 13.9 | 21.3 | > 100 |
| Cc1nnc2n1N=C(c1cc(F)c(Cl)cc1Cl)/C(=C/c1ccc(Cl)cc1)S2 | 28 | > 100 | 41.7 | – | > 100 | 92.3 | 53.9 | 34.2 | > 100 | 34.5 | 60.1 | 52.8 | 25.2 | 36.8 | > 100 | > 100 | 48.8 | 41.4 | 40.5 | > 100 |
| COC(=O)C1(C(=O)OC)CC2=C(S(=O)(=O)c3ccccc3)C[C@H](S(=O)(=O)c3ccccc3)[C@H]2C1 | > 100 | > 100 | > 100 | 93.6 | > 100 | – | 49.9 | > 100 | > 100 | > 100 | 55.9 | 71.6 | > 100 | > 100 | > 100 | > 100 | > 100 | > 100 | 66.2 | 58.5 |
| O=C(O)CSc1nnc(COc2ccc(Cl)cc2)n1-c1ccccc1 | > 100 | > 100 | > 100 | > 100 | > 100 | – | > 100 | > 100 | > 100 | > 100 | > 100 | > 100 | > 100 | > 100 | > 100 | > 100 | > 100 | > 100 | > 100 | > 100 |
| Brc1ccc(CCNCCN2CCCCC2)cc1 | 36.2 | 30.5 | 42.6 | 26.3 | 25.6 | 23.3 | 31 | 59.5 | 24.1 | 15.4 | 23.5 | – | 29.7 | 27.5 | 34 | 28.8 | 37 | 29.2 | 49.8 | > 100 |
| O=C(CN1c2ccccc2Sc2ccccc21)N1CCNCC1 | > 100 | > 100 | > 100 | > 100 | > 100 | > 100 | > 100 | > 100 | > 100 | > 100 | > 100 | > 100 | > 100 | > 100 | > 100 | > 100 | > 100 | – | > 100 | > 100 |
| CCCCN1C(=O)CC2[C@@H]3CCc4cc(OC(C)=O)ccc4C3CC[C@]2(C)C1=O (stereo partly drawn) | > 10 | > 10 | > 10 | – | > 10 | > 10 | > 10 | > 10 | > 10 | > 10 | > 10 | > 10 | > 10 | > 10 | > 10 | > 10 | > 10 | > 10 | > 10 | > 10 |
| C[N+]1=C2[B-](C(C)(C)C)=[N+](C(C)(C)C)[B-]2(C(C)(C)C)[N+](C)=C2[B-](C(C)(C)C)=[N+](C(C)(C)C)[B-]21C(C)(C)C (stereo not drawn) | > 100 | > 100 | > 100 | > 100 | > 100 | – | > 100 | > 100 | > 100 | > 100 | > 100 | > 100 | > 100 | > 100 | > 100 | > 100 | > 100 | > 100 | > 100 | > 100 |
| CC(O[Si](c1ccccc1)(c1ccccc1)C(C)(C)C)[C@H](NC(=O)OC(C)(C)C)C(=O)O[Si](c1ccccc1)(c1ccccc1)C(C)(C)C (stereo partly drawn) | 30.4 | 33.6 | 23.9 | 29 | 31.3 | – | 31.9 | 29 | 28.5 | 23.9 | 23.2 | – | – | 25.9 | 29.8 | 31.1 | 26.1 | 27 | 26.9 | 40.6 |
